# In ChEMBL document CHEMBL1137237, “Identification of isothiazole-4-carboxamidines derivatives as a novel class of allosteric MEK1 inhibitors” (Bioorg Med Chem Lett, 2006):
# Assays:
# [1] = AUC following oral dose; type: ADME, organism-based; conditions: rat, plasma
# [2] = AUC following intravenous dose; type: ADME, organism-based; conditions: rat, plasma
# [3] = biological target: T1, Tyrosine-protein kinase receptor UFO (Homo sapiens, UniProt P30530); assay: Inhibition of Axl
# T1 sequence (P30530 whole entry): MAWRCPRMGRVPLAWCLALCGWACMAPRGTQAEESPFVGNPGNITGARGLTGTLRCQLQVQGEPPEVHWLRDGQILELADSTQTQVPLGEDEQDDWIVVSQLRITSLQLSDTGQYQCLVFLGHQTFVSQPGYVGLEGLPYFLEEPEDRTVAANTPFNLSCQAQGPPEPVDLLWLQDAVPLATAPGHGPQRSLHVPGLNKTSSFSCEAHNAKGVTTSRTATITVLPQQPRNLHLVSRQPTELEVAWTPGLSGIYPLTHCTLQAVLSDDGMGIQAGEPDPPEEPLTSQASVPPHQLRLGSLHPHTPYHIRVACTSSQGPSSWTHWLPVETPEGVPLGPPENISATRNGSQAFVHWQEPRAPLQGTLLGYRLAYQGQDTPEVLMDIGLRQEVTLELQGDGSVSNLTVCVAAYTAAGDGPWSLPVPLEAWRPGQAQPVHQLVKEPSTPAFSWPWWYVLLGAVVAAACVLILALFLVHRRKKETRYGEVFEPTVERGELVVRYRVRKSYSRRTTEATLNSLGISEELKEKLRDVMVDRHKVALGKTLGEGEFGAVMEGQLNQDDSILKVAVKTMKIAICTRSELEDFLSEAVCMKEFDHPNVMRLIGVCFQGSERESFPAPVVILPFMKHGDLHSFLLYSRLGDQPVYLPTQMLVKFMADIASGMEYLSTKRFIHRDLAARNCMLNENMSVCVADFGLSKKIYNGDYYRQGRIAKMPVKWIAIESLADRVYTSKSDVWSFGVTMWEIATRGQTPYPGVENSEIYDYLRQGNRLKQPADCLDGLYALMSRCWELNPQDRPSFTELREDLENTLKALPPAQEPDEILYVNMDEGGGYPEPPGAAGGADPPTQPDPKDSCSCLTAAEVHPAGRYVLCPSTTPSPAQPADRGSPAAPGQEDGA
# [4] = biological target: T2, Dual specificity mitogen-activated protein kinase kinase 1 (Homo sapiens, UniProt Q02750); assay: Inhibitory activity against MEK-1; type: functional
# T2 sequence (Q02750 whole entry): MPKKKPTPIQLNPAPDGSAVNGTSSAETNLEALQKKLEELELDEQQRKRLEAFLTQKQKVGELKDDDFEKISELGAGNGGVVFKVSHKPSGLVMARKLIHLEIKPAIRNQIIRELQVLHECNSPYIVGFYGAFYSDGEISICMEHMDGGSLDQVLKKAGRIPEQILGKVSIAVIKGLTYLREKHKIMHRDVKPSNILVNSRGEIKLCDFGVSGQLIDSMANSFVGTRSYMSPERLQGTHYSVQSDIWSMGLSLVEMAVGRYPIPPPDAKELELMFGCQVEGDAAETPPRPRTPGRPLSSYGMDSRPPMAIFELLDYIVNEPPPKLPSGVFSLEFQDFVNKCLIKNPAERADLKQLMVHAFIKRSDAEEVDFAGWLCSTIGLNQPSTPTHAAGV
# [5] = biological target: T2, Dual specificity mitogen-activated protein kinase kinase 1; assay: Inhibition of MEK-1
# [6] = biological target: T3, Receptor-type tyrosine-protein kinase FLT3 (Homo sapiens, UniProt P36888); assay: Inhibition of Flt-3
# T3 sequence (P36888 whole entry): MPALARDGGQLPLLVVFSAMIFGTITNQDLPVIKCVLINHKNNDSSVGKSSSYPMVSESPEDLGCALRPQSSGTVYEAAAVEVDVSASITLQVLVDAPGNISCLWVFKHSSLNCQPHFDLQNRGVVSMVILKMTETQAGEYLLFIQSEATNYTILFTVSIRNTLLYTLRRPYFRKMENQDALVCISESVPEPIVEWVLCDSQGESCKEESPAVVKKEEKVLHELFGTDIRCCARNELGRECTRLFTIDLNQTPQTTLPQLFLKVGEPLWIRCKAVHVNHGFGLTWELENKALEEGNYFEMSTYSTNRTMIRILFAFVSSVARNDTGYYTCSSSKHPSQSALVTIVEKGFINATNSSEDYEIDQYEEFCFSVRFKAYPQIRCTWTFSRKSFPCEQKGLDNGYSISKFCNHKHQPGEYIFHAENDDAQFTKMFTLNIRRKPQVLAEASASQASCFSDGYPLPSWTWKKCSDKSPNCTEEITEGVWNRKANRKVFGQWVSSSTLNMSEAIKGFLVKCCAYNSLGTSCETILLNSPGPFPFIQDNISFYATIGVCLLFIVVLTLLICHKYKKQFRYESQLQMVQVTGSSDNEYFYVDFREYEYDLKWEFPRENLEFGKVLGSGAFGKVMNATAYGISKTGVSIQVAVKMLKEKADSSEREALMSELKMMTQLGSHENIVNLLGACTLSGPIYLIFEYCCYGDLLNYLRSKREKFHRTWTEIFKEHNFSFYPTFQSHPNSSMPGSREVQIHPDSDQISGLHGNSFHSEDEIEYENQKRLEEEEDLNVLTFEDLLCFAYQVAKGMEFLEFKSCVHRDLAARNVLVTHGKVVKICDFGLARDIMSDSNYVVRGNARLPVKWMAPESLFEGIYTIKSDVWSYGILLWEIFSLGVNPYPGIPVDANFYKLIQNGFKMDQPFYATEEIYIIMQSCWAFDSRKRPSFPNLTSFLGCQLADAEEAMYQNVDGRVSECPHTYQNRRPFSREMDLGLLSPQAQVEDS
# [7] = biological target: T2, Dual specificity mitogen-activated protein kinase kinase 1; assay: Inhibition of MEK-1 activity
# [8] = biological target: Serine/threonine-protein kinase Chk2 (Homo sapiens, UniProt O96017); assay: Inhibition of CHK2
# Sequence of Serine/threonine-protein kinase Chk2 (O96017 whole entry): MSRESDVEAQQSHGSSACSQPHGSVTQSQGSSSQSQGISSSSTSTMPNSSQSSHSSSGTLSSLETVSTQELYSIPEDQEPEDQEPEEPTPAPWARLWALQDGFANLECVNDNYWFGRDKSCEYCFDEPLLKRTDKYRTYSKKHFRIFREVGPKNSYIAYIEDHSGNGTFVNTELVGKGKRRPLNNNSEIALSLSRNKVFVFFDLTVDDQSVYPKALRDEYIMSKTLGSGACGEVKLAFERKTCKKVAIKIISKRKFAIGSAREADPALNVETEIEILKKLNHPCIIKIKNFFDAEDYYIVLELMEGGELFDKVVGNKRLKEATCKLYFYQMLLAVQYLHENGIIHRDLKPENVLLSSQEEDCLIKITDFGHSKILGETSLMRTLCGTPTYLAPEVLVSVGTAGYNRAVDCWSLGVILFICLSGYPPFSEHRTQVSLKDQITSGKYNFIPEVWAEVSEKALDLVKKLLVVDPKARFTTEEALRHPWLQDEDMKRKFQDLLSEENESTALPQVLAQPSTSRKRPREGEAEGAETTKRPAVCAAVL
# Aurora kinase A = biological target: T4, Aurora kinase A (Homo sapiens, UniProt O14965); assay: Inhibition of Aurora
# T4 sequence (O14965 whole entry): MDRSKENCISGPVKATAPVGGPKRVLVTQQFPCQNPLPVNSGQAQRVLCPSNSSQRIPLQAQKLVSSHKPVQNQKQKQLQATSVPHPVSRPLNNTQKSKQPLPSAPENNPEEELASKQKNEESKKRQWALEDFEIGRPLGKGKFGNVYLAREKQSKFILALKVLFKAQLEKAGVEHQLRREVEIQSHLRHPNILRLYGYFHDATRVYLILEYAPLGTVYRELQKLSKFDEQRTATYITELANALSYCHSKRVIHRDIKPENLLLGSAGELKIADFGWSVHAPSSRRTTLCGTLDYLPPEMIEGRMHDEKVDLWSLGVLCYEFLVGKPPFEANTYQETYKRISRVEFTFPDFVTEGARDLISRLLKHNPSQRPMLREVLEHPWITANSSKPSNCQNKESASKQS
# [9] = biological target: Ribosomal protein S6 kinase (P70S6K) (Homo sapiens, UniProt P23443+Q9UBS0); assay: Inhibition of p70 S6 kinase; type: protein-complex assay
# Sequence of Ribosomal protein S6 kinase (P70S6K) (Q9UBS0 whole entry): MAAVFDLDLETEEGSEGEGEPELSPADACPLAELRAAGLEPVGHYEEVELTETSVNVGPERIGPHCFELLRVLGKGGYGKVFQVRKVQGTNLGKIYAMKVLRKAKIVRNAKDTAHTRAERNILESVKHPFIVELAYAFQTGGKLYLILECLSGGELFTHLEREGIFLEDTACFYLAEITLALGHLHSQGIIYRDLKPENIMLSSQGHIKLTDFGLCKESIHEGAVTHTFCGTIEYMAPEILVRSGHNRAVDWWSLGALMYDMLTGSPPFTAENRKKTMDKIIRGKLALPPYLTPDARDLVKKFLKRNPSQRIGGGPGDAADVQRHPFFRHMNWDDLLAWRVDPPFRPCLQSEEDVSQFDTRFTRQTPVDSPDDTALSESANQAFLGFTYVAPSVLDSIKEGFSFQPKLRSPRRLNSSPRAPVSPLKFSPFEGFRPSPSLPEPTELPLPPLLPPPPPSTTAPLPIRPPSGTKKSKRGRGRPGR
# Sequence of Ribosomal protein S6 kinase (P70S6K) (P23443 whole entry): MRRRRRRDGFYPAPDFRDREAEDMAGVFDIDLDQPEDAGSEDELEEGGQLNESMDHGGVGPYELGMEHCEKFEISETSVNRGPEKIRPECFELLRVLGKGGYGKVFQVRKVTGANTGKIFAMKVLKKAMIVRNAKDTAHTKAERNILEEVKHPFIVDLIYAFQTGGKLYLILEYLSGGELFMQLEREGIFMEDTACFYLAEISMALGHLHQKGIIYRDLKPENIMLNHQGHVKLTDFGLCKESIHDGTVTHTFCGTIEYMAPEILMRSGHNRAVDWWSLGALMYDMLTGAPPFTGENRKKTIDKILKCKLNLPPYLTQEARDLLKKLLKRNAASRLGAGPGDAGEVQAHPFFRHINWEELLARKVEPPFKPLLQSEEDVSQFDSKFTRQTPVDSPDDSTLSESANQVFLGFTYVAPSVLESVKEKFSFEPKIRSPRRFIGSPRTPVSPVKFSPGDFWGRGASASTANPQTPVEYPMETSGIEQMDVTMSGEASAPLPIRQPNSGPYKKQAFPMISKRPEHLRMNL
SMILES,AUC [1],also measured
CC(CO)/N=C(\N)c1c(O)nsc1Nc1ccc(Oc2cccc(Cl)c2Cl)cc1 (stereo not given),5260 ng·h/mL,
CC(CO)NC(=N)c1c(O)nsc1Nc1ccc(Oc2cc(F)ccc2Cl)cc1 (stereo not given),900 ng·h/mL,
N=C(NCCN1CCOCC1)c1c(O)nsc1Nc1ccc(Oc2cc(Cl)ccc2Cl)cc1,617 ng·h/mL,
CC(CO)NC(=N)c1c(O)nsc1Nc1ccc(Oc2cccc(F)c2F)cc1 (stereo not given),9430 ng·h/mL,
CC(CO)NC(=N)c1c(O)nsc1Nc1ccc(Oc2cccc(Cl)c2Cl)c(Cl)c1 (stereo not given),4280 ng·h/mL,
NC(=NCCCN1CCOCC1)c1c(Nc2ccc(Oc3cc(Cl)ccc3Cl)cc2)s[nH]c1=O,6860 ng·h/mL,
CC(CO)NC(=N)c1c(O)nsc1Nc1ccc(Oc2cc(Cl)cc(Cl)c2)cc1 (stereo not given),11700 ng·h/mL,
CC(CO)/N=C(\N)c1c(O)nsc1Nc1ccc(Oc2ccc(F)cc2F)cc1 (stereo not given),16500 ng·h/mL,
CC(CO)NC(=N)c1c(O)nsc1Nc1ccc(Oc2ccc(Cl)cc2Cl)cc1 (stereo not given),26200 ng·h/mL,
N/C(=N\N1CCOCC1)c1c(O)nsc1Nc1ccc(Oc2cc(Cl)ccc2Cl)cc1,2880 ng·h/mL,
CN1CCN(CC/N=C(\N)c2c(O)nsc2Nc2ccc(Oc3cc(Cl)ccc3Cl)cc2)CC1,262 ng·h/mL,
CC(CO)/N=C(\N)c1c(O)nsc1Nc1ccc(Oc2cc(F)cc(F)c2)cc1 (stereo not given),5140 ng·h/mL,
CC(CO)/N=C(\N)c1c(O)nsc1Nc1ccc(Oc2ccc(F)cc2Cl)cc1 (stereo not given),6260 ng·h/mL,
CC(CO)/N=C(\N)c1c(O)nsc1Nc1ccc(Oc2cc(F)cc(F)c2Cl)cc1 (stereo not given),20300 ng·h/mL,
CC(CO)N=C(N)c1c(Nc2ccc(Oc3cc(Cl)ccc3Cl)cc2)s[nH]c1=O (stereo not given),47400 ng·h/mL,
CC(C)C(CO)N=C(N)c1c(Nc2ccc(Oc3cc(Cl)ccc3Cl)cc2)s[nH]c1=O (stereo not given),22400 ng·h/mL,
NC(=NC(CO)CO)c1c(Nc2ccc(Oc3cc(Cl)ccc3Cl)cc2)s[nH]c1=O,5100 ng·h/mL,
N=C(NCC1CCCO1)c1c(O)nsc1Nc1ccc(Oc2cc(Cl)ccc2Cl)cc1 (stereo not given),425 ng·h/mL,
N/C(=N\CCN1CCNC(=O)C1)c1c(O)nsc1Nc1ccc(Oc2cc(Cl)ccc2Cl)cc1,87 ng·h/mL,
NC(=NCCO)c1c(Nc2ccc(Oc3cc(Cl)ccc3Cl)cc2)s[nH]c1=O,14600 ng·h/mL,
CC(CO)N=C(N)c1c(Nc2ccc(S(=O)(=O)c3ccccc3)cc2)s[nH]c1=O (stereo not given),4250 ng·h/mL,AUC [2]: 8540 ng·h/mL
CC(CO)NC(=N)c1c(O)nsc1Nc1ccc(Oc2cccc(C(F)(F)F)c2Cl)c(Cl)c1 (stereo not given),5710 ng·h/mL,
CC(CO)/N=C(\N)c1c(O)nsc1Nc1ccc(C(=O)c2ccccc2)cc1 (stereo not given),60 ng·h/mL,AUC [2]: 2900 ng·h/mL
CC(CO)/N=C(\N)c1c(O)nsc1Nc1ccc(Cc2ccccc2)cc1 (stereo not given),220 ng·h/mL,AUC [2]: 7250 ng·h/mL

SMILES,AUC [1],also measured
CC(CO)N=C(N)c1c(Nc2ccc(Oc3cc(C(F)(F)F)ccc3Cl)cc2)s[nH]c1=O (stereo not given),21900 ng·h/mL,
CC(CO)N=C(N)c1c(Nc2ccc(Oc3cccc(C(F)(F)F)c3Cl)c(F)c2)s[nH]c1=O (stereo not given),4500 ng·h/mL,
CC(CO)N=C(N)c1c(Nc2ccc(Oc3cc(C(F)(F)F)ccc3F)cc2)s[nH]c1=O (stereo not given),31300 ng·h/mL,
CC(CO)N=C(N)c1c(Nc2ccc(Oc3cccc(C(F)(F)F)c3F)cc2)s[nH]c1=O (stereo not given),13000 ng·h/mL,
CC(CO)NC(=N)c1c(O)nsc1Nc1ccc(Oc2cccc(C(F)(F)F)c2Cl)cc1 (stereo not given),20400 ng·h/mL,
CC(CO)NC(=N)c1c(O)nsc1Nc1ccc(Nc2ccccc2)cc1 (stereo not given),1240 ng·h/mL,IC50 [3]: 389 nM; EC50 [4]: 45 nM; IC50 [5]: 266 nM; AUC [2]: 859 ng·h/mL; IC50 [6]: 448 nM; IC50 [7]: 240 nM; IC50 [8]: 13 nM; IC50 (Aurora kinase A): 265 nM; IC50 [9]: 1000 nM
N=C(NCCC(O)CO)c1c(O)nsc1Nc1ccc(Oc2cc(Cl)ccc2Cl)cc1 (stereo not given),2020 ng·h/mL,
CC(CO)NC(=N)c1c(O)nsc1Nc1ccc(Oc2cccc(C(F)(F)F)c2)cc1 (stereo not given),28700 ng·h/mL,
CN1CCN(N=C(N)c2c(Nc3ccc(Oc4cc(Cl)ccc4Cl)cc3)s[nH]c2=O)CC1,1980 ng·h/mL,
NC(=NCC(O)CO)c1c(Nc2ccc(Oc3cc(Cl)ccc3Cl)cc2)s[nH]c1=O (stereo not given),12500 ng·h/mL,
CC(CO)N=C(N)c1c(Nc2ccc(Oc3ccc(F)cc3Cl)c(Cl)c2)s[nH]c1=O (stereo not given),5690 ng·h/mL,
CCC(CO)/N=C(\N)c1c(O)nsc1Nc1ccc(Oc2cc(Cl)ccc2Cl)cc1 (stereo not given),14600 ng·h/mL,
CC(CO)/N=C(\N)c1c(O)nsc1Nc1ccc(Oc2cccc(Cl)c2F)cc1 (stereo not given),12600 ng·h/mL,
CC(CO)/N=C(\N)c1c(O)nsc1Nc1ccc(Oc2cc(Cl)ccc2Cl)c(F)c1 (stereo not given),22200 ng·h/mL,
CC(CO)/N=C(\N)c1c(O)nsc1Nc1ccc(C(C)(C)c2ccccc2)cc1 (stereo not given),2350 ng·h/mL,AUC [2]: 9250 ng·h/mL
CC(O)C/N=C(\N)c1c(O)nsc1Nc1ccc(Oc2cc(Cl)ccc2Cl)cc1 (stereo not given),23900 ng·h/mL,
CC(CO)N=C(N)c1c(Nc2ccc(Sc3ccccc3)cc2)s[nH]c1=O (stereo not given),265 ng·h/mL,AUC [2]: 6900 ng·h/mL
CN1CCN(CCC/N=C(\N)c2c(O)nsc2Nc2ccc(Oc3cc(Cl)ccc3Cl)cc2)CC1,2420 ng·h/mL,
CC(CO)/N=C(\N)c1c(O)nsc1Nc1ccc(Oc2cc(F)cc(F)c2Cl)c(F)c1 (stereo not given),14900 ng·h/mL,
CC(CO)N=C(N)c1c(Nc2ccc(Oc3cccc(N(C)C)c3)cc2)s[nH]c1=O (stereo not given),900 ng·h/mL,
Cc1cc(Oc2ccc(F)cc2Cl)ccc1Nc1snc(O)c1/C(N)=N/C(C)CO (stereo not given),12700 ng·h/mL,
CC(CO)NC(=N)c1c(O)nsc1Nc1ccc(Oc2cc(F)cc(C(F)(F)F)c2)cc1 (stereo not given),15400 ng·h/mL,
CC(CO)/N=C(\N)c1c(O)nsc1Nc1ccc(Oc2ccccc2)cc1 (stereo not given),1140 ng·h/mL,IC50 [3]: 455 nM; EC50 [4]: 42 nM; IC50 [5]: 26 nM; AUC [2]: 8320 ng·h/mL; IC50 [6]: 795 nM; IC50 [7]: 33 nM; IC50 [8]: 142 nM; IC50 (Aurora kinase A): 260 nM; IC50 [9]: 2620 nM
